Test results published in ChEMBL document CHEMBL4138119, “Anti-diabetic activity of fused PPARγ-SIRT1 ligands with limited body-weight gain by mimicking calorie restriction and decreasing SGK1 expression” (Eur J Med Chem, 2017).
The source made the active and inactive calls. The calls are words filed in the database; no cut-off is given here.

Experiments:
[1] = target: T1, Peroxisome proliferator-activated receptor alpha (Homo sapiens) (UniProt Q07869); experiment: Transactivation of human Gal4-fused PPARalpha LBD expressed in African green monkey COS7 cells after 24 hrs by luciferase reporter gene assay relative to WY14643; format: cell-based
T1 sequence (whole entry): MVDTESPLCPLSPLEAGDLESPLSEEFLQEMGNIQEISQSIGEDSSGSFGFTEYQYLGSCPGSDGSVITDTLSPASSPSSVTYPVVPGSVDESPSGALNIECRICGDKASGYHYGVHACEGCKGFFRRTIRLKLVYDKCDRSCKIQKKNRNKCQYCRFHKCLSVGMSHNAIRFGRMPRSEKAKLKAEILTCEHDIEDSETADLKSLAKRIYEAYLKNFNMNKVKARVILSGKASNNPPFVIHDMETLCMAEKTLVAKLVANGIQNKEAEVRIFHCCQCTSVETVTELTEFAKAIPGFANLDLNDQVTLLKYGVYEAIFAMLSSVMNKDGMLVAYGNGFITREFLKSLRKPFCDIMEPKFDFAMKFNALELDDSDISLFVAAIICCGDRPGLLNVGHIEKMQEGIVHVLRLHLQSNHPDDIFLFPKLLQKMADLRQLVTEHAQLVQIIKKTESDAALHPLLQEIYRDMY

[2] = Modulation of SGK1 mRNA expression in HCCD cells at 20 uM after 24 hrs by RT-PCR method relative to control; format: functional, Homo sapiens
[3] = system: Mus musculus; experiment: Toxicity in ob/ob mouse assessed as change in body weight at 3 mg/kg administered via oral gavage daily for 4 days measured on day 5 relative to control; format: organism-based; conditions: in vivo, 96 h
[4] = target: T2, NAD-dependent protein deacetylase sirtuin-1 (Homo sapiens) (UniProt Q96EB6); experiment: Activation of recombinant human SIRT1 at 10 uM using C-terminal AMC labeled Arg-His-Lys-Lys (Ac) as substrate after 30 mins by FLUOR DE LYS fluorescent assay relative to control
T2 sequence (whole entry): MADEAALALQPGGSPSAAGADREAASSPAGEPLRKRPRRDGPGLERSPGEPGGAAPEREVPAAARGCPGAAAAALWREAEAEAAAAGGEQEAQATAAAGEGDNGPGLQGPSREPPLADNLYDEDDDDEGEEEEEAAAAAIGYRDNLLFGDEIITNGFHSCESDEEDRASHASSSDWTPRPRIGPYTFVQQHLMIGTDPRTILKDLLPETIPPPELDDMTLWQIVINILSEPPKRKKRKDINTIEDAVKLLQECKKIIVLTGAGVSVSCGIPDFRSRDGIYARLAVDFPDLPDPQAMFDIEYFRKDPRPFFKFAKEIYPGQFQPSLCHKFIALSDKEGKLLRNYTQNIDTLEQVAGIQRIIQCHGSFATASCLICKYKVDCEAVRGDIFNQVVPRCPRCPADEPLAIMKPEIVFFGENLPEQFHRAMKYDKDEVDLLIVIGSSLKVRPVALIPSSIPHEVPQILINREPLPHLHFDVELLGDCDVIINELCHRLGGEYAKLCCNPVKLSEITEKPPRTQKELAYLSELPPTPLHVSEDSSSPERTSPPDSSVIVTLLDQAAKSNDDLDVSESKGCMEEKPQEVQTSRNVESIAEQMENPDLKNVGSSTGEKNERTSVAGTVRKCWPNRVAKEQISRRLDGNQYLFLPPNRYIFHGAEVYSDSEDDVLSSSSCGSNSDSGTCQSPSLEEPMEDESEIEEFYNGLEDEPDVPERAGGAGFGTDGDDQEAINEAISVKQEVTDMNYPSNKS

[5] = target: T3, Peroxisome proliferator-activated receptor delta (Homo sapiens) (UniProt Q03181); experiment: Transactivation of human PPARdelta at 10 uM
T3 sequence (whole entry): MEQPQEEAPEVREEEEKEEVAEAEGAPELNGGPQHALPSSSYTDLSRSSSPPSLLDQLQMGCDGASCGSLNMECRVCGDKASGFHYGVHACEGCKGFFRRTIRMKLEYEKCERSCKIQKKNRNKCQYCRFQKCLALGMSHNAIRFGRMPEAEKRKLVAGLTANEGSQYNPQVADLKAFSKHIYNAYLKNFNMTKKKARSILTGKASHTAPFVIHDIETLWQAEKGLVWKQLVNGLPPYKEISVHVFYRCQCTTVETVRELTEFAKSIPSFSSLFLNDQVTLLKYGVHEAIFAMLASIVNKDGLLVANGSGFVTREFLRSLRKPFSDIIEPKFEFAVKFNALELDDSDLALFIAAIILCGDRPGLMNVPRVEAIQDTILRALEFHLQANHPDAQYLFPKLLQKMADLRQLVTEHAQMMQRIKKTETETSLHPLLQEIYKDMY

[6] = target: T4, Peroxisome proliferator-activated receptor alpha (Homo sapiens, UniProt Q07869); experiment: Transactivation of human Gal4-fused PPARalpha LBD expressed in African green monkey COS7 cells after 24 hrs by luciferase reporter gene assay; format: cell-based
T4 sequence (Q07869 whole entry): T1 sequence (whole entry)

[7] = target: T5, Peroxisome proliferator-activated receptor gamma (Homo sapiens, UniProt P37231); experiment: Transactivation of human Gal4-fused PPARgamma LBD expressed in African green monkey COS7 cells after 24 hrs by luciferase reporter gene assay; format: cell-based; conditions: read-out: EC50
T5 sequence (P37231 whole entry): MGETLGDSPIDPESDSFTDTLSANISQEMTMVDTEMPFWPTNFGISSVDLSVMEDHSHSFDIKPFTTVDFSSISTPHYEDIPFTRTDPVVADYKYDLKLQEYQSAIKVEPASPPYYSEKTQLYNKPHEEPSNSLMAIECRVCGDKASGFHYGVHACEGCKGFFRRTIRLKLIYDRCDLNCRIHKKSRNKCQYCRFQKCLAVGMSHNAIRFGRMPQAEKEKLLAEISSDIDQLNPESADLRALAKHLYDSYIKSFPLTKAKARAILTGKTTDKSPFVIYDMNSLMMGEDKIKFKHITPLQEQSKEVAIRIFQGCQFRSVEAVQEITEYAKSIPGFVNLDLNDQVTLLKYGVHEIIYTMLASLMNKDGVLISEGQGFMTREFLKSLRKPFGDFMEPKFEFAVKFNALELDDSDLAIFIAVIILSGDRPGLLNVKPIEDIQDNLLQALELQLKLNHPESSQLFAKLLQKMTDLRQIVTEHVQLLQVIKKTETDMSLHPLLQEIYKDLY

[8] = system: Mus musculus; experiment: Anti-diabetic activity in ob/ob mouse assessed as change in serum triglyceride levels at 8.4 uM/kg administered via oral gavage daily for 4 days measured on day 5 relative to control; format: functional
[9] = system: Mus musculus; experiment: Anti-diabetic activity in ob/ob mouse assessed as change in serum glucose levels at 8.4 uM/kg administered via oral gavage daily for 4 days measured on day 5 relative to control; format: functional
[10] = system: Mus musculus; experiment: Anti-diabetic activity in ob/ob mouse assessed as change in serum insulin levels at 8.4 uM/kg administered via oral gavage daily for 4 days measured on day 5 relative to control; format: functional
[11] = system: Mus musculus; experiment: Toxicity in ob/ob mouse assessed as change in body weight at 8.4 uM/kg administered via oral gavage daily for 4 days measured on day 5 relative to control; format: organism-based; conditions: in vivo, 96 h, 8.4 µmol/kg

SMILES | Emax [1] [%] | Activity [2] [%] | Activity [3] [%] | Activity [4] [%] | Activity [5] | EC50 [6] [µM] | EC50 [7] [nM] | Activity [8] [%] | Activity [9] [%] | Activity [10] [%] | Activity [11] [%]
Cc1oc(-c2ccccc2)nc1CCOc1ccc(C[C@H](Nc2ccccc2C(=O)c2ccccc2)C(=O)O)cc1 [FARGLITAZAR] | 231 | 969 | 162 |  |  |  |  |  |  |  | 
COc1ccc(OC(=O)N(CC(=O)O)Cc2ccc(OCCc3nc(-c4ccccc4)oc3C)cc2)cc1 [MURAGLITAZAR] | 84 | 178 | 206 |  |  |  |  |  |  |  | 
CN(CCOc1ccc(CC2SC(=O)NC2=O)cc1)c1ccccn1 (centres undefined) [ROSIGLITAZONE] |  | 119 | 100 | 5 |  |  |  |  |  |  | 
CCOC(Cc1ccc(OCCn2c(=O)sc3cc(/C=C/c4cc(OC)cc(OC)c4)ccc32)cc1)C(=O)NC (centres undefined) | 0 | -43 |  | 17 | inactive | 10 | < 10 | -29 | -14 | -36 | 111
CCOC(Cc1ccc(OCCn2c(=O)sc3cc(/C=C/c4cc(OC)cc(OC)c4)ccc32)cc1)C(N)=O (centres undefined) | 35 | -43 |  | -12 | inactive | 1 | < 10 | -32 | -27 | -26 | 158
